Results taken from ChEMBL document CHEMBL1201862, “PubChem BioAssay data set” (2004).
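These data come from cells grown in 96-well plates and exposed to compound for 48 hours at five concentrations. Abbreviation: GI50, concentration required for 50% inhibition of growth.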 Calls of active or inactive are those of the source. No stated cut-off is given here; in the data, active = GI50 up to about 1.1 µM and inactive = higher.

Experiments:
Assay in all cases: NCI-60 cell line screen, 48 h
T47D = system: T47D
SNB-19 = system: SNB-19
M14 = system: M14
SK-OV-3 = system: SK-OV-3
MDA-MB-231 = system: MDA-MB-231
NCI-H226 = system: NCI-H226
EKVX = system: EKVX
CAKI-1 = system: CAKI-1
CCRF-CEM = system: CCRF-CEM
RXF 393 = system: RXF 393
OVCAR-5 = system: OVCAR-5
KM12 = system: KM12
A498 = system: A498
SN12C = system: SN12C
TK-10 = system: TK-10
Malme-3M = system: Malme-3M
SK-MEL-2 = system: SK-MEL-2
RPMI-8226 = system: RPMI-8226
KM-20L2 = system: KM-20L2
HOP-18 = system: HOP-18

Compound | GI50 (T47D) | GI50 (SNB-19) | GI50 (M14) | GI50 (SK-OV-3) | GI50 (MDA-MB-231) | GI50 (NCI-H226) | GI50 (EKVX) | GI50 (CAKI-1) | GI50 (CCRF-CEM) | GI50 (RXF 393) | GI50 (OVCAR-5) | GI50 (KM12) | GI50 (A498) | GI50 (SN12C) | GI50 (TK-10) | GI50 (Malme-3M) | GI50 (SK-MEL-2) | GI50 (RPMI-8226) | GI50 (KM-20L2) | GI50 (HOP-18)
CC(=O)OC[C@H]1[C@@H]2C(CC[C@]13CO3)OC(=O)CC(C)[C@]2(C)CCc1ccoc1 (some centres not stated) | > 100 µM (inactive) | > 100 µM (inactive) | > 100 µM (inactive) | > 100 µM (inactive) | > 100 µM (inactive) | > 100 µM (inactive) | > 100 µM (inactive) | > 100 µM (inactive) | > 100 µM (inactive) | > 100 µM (inactive) | > 100 µM (inactive) | > 100 µM (inactive) | > 100 µM (inactive) | > 100 µM (inactive) | > 100 µM (inactive) | > 100 µM (inactive) | – | – | – | –
C=CC1OC(CCCOC(=O)C(C)(C)C)O[C@@H]1CC (some centres not stated) | > 100 µM (inactive) | > 100 µM (inactive) | > 100 µM (inactive) | > 100 µM (inactive) | > 100 µM (inactive) | > 100 µM (inactive) | > 100 µM (inactive) | > 100 µM (inactive) | > 100 µM (inactive) | – | > 100 µM (inactive) | > 100 µM (inactive) | > 100 µM (inactive) | > 100 µM (inactive) | > 100 µM (inactive) | – | > 100 µM (inactive) | > 100 µM (inactive) | – | –
Cc1ccc(C)c(NC(=O)C(=O)C(C(=O)c2ccc3ccccc3c2)C2OC(=O)c3ccccc32)c1 (configuration not stated) | – | 8 µM (inactive) | 14.6 µM (inactive) | 14.3 µM (inactive) | – | 2.44 µM (inactive) | 16.5 µM (inactive) | 20 µM (inactive) | 10.9 µM (inactive) | 2.97 µM (inactive) | 14.9 µM (inactive) | 14.2 µM (inactive) | 16.8 µM (inactive) | 15.7 µM (inactive) | 19.2 µM (inactive) | – | 13.6 µM (inactive) | 22.2 µM (inactive) | 21.3 µM (inactive) | –
OC(c1cccnc1Cl)c1nc2ccccc2c2ccnc(Cl)c12 (configuration not stated) | 21.4 µM (inactive) | 6.82 µM (inactive) | 2.08 µM (inactive) | 8.38 µM (inactive) | 7.82 µM (inactive) | – | 19.2 µM (inactive) | 6.25 µM (inactive) | – | 4.12 µM (inactive) | 9.51 µM (inactive) | 2.94 µM (inactive) | 3.23 µM (inactive) | 3.6 µM (inactive) | 24.3 µM (inactive) | 6.92 µM (inactive) | 4.94 µM (inactive) | 2.34 µM (inactive) | – | –
NNC(N)Nc1ccccc1 (configuration not stated) | > 100 µM (inactive) | > 100 µM (inactive) | > 100 µM (inactive) | > 100 µM (inactive) | > 100 µM (inactive) | > 100 µM (inactive) | > 100 µM (inactive) | > 100 µM (inactive) | > 100 µM (inactive) | > 100 µM (inactive) | > 100 µM (inactive) | > 100 µM (inactive) | > 100 µM (inactive) | > 100 µM (inactive) | > 100 µM (inactive) | > 100 µM (inactive) | > 100 µM (inactive) | – | – | –
CCOP(=O)(COCCn1nc(Br)c(=O)[nH]c1=O)OCC | > 100 µM (inactive) | > 100 µM (inactive) | > 100 µM (inactive) | – | > 100 µM (inactive) | > 100 µM (inactive) | > 100 µM (inactive) | > 100 µM (inactive) | > 100 µM (inactive) | > 100 µM (inactive) | > 100 µM (inactive) | > 100 µM (inactive) | > 100 µM (inactive) | > 100 µM (inactive) | – | > 100 µM (inactive) | > 100 µM (inactive) | > 100 µM (inactive) | – | –
CCOC(=O)c1c(NC(=O)Nc2ccccc2)c(C(N)=O)c2n1CCCCC2 | > 100 µM (inactive) | > 100 µM (inactive) | > 100 µM (inactive) | > 100 µM (inactive) | > 100 µM (inactive) | > 100 µM (inactive) | > 100 µM (inactive) | > 100 µM (inactive) | > 100 µM (inactive) | > 100 µM (inactive) | – | > 100 µM (inactive) | > 100 µM (inactive) | – | > 100 µM (inactive) | – | > 100 µM (inactive) | > 100 µM (inactive) | – | –
CC(c1ccccc1)/[N+]([O-])=C/c1ccccc1 (configuration not stated) | – | > 100 µM (inactive) | – | > 100 µM (inactive) | – | – | > 100 µM (inactive) | – | > 100 µM (inactive) | > 100 µM (inactive) | > 100 µM (inactive) | > 100 µM (inactive) | > 100 µM (inactive) | – | > 100 µM (inactive) | – | – | > 100 µM (inactive) | > 100 µM (inactive) | 34.9 µM (inactive)
COc1cc(O)c2c(c1)C(=O)c1cc3c(c(O)c1C2=O)C(OC1OC(C)C(O)C(O)C1OC)C(OC)C(C)(O)C3=O (configuration not stated) | – | 2.94 µM (inactive) | – | 3.2 µM (inactive) | – | 3.48 µM (inactive) | 2.43 µM (inactive) | – | – | 1.22 µM (inactive) | 4.43 µM (inactive) | – | 2.04 µM (inactive) | 1.9 µM (inactive) | – | 0.893 µM (active) | 3.65 µM (inactive) | – | 1.1 µM (active) | 5.16 µM (inactive)
O=S(=O)(c1ccccc1)C1CC(c2nc3ccccc3[nH]2)=NO1 (configuration not stated) | > 100 µM (inactive) | > 100 µM (inactive) | – | > 100 µM (inactive) | > 100 µM (inactive) | > 100 µM (inactive) | 84.9 µM (inactive) | 97.7 µM (inactive) | 21.8 µM (inactive) | 83 µM (inactive) | > 100 µM (inactive) | – | 43 µM (inactive) | > 100 µM (inactive) | 74.8 µM (inactive) | 8.26 µM (inactive) | > 100 µM (inactive) | 28.1 µM (inactive) | – | –
Cc1cc(O)c(C(C)C)cc1SC#N | 17.8 µM (inactive) | – | – | 21 µM (inactive) | 18.5 µM (inactive) | – | – | 15 µM (inactive) | 3.51 µM (inactive) | 15.5 µM (inactive) | – | 17.6 µM (inactive) | 17.1 µM (inactive) | – | 16.9 µM (inactive) | 17.4 µM (inactive) | 18.2 µM (inactive) | 2.16 µM (inactive) | – | –
O=C(N/C=C1\C(=O)Oc2ccccc2C1=O)NC1CCCCC1 | – | 42.7 µM (inactive) | 50.2 µM (inactive) | – | – | 41.1 µM (inactive) | > 100 µM (inactive) | – | – | 19.9 µM (inactive) | > 100 µM (inactive) | – | – | 39.7 µM (inactive) | > 100 µM (inactive) | – | 24.2 µM (inactive) | > 100 µM (inactive) | > 100 µM (inactive) | –
CN1C[C@H]2[C@@H](C1=O)[C@H](c1ccc([N+](=O)[O-])cc1)ON2C | > 100 µM (inactive) | > 100 µM (inactive) | > 100 µM (inactive) | > 100 µM (inactive) | > 100 µM (inactive) | > 100 µM (inactive) | – | > 100 µM (inactive) | > 100 µM (inactive) | – | > 100 µM (inactive) | – | – | > 100 µM (inactive) | > 100 µM (inactive) | – | > 100 µM (inactive) | > 100 µM (inactive) | – | –
CCN1c2ccccc2NC(=S)c2c(-c3ccccc3)n[nH]c21 | 17.9 µM (inactive) | – | 31.6 µM (inactive) | 34 µM (inactive) | 19.3 µM (inactive) | – | 21 µM (inactive) | 52.8 µM (inactive) | 18.3 µM (inactive) | 27.7 µM (inactive) | 56.4 µM (inactive) | 31.7 µM (inactive) | – | 43.5 µM (inactive) | 48.4 µM (inactive) | – | 25.3 µM (inactive) | 16.1 µM (inactive) | – | –
O=C(Nc1ccc(Cl)cc1)C(=O)C(C(=O)c1ccccc1-c1ccccc1)C1OC(=O)c2ccccc21 (configuration not stated) | – | 16.6 µM (inactive) | 20 µM (inactive) | 27.6 µM (inactive) | – | 6.34 µM (inactive) | 18.2 µM (inactive) | 24 µM (inactive) | 18.2 µM (inactive) | 11.6 µM (inactive) | 28.3 µM (inactive) | 17.3 µM (inactive) | 16.4 µM (inactive) | 19.3 µM (inactive) | 21.4 µM (inactive) | – | 20.8 µM (inactive) | 26.9 µM (inactive) | 23.7 µM (inactive) | –
O=S(=O)(O)c1ccc(/N=N\c2ccc(/N=N\c3ccc(/C=C/c4ccc(/N=[N+](/[O-])c5ccc(/C=C/c6ccc(/N=N/c7ccc(/N=N\c8ccc(S(=O)(=O)O)cc8)cc7)cc6S(=O)(=O)O)c(S(=O)(=O)O)c5)cc4S(=O)(=O)O)c(S(=O)(=O)O)c3)cc2)cc1 | – | > 100 µM (inactive) | – | > 100 µM (inactive) | – | > 67.8 µM (inactive) | > 100 µM (inactive) | – | > 100 µM (inactive) | > 100 µM (inactive) | > 100 µM (inactive) | > 100 µM (inactive) | > 100 µM (inactive) | > 100 µM (inactive) | – | > 100 µM (inactive) | > 100 µM (inactive) | > 100 µM (inactive) | > 100 µM (inactive) | > 100 µM (inactive)
O=C(NC(Cc1ccc(I)cc1)C(=O)O)c1ccc(Cl)cc1 (configuration not stated) | – | > 100 µM (inactive) | – | > 100 µM (inactive) | – | > 100 µM (inactive) | > 67.8 µM (inactive) | > 100 µM (inactive) | > 81.5 µM (inactive) | – | > 100 µM (inactive) | > 100 µM (inactive) | > 100 µM (inactive) | > 100 µM (inactive) | – | 89.7 µM (inactive) | > 100 µM (inactive) | 59.3 µM (inactive) | > 100 µM (inactive) | > 100 µM (inactive)
O=C(O)C1=C(CO)Oc2cc3c(cc2C1c1ccc2c(c1)OCO2)OCO3 (configuration not stated) | – | > 100 µM (inactive) | > 100 µM (inactive) | > 100 µM (inactive) | – | – | > 100 µM (inactive) | > 100 µM (inactive) | > 100 µM (inactive) | > 100 µM (inactive) | – | – | – | > 100 µM (inactive) | > 100 µM (inactive) | > 100 µM (inactive) | > 100 µM (inactive) | > 100 µM (inactive) | > 100 µM (inactive) | > 100 µM (inactive)
